Experimental data reported in ChEMBL document CHEMBL5131538 (J Med Chem, 2022).

Columns and labels:
[1] = biological target: T1, Glucocorticoid receptor (Rattus norvegicus, UniProt P06536); assay: Displacement of [3H]-dexamethasone from rat glucocorticoid receptor incubated overnight by liquid scintillation counting analysis
T1 sequence (P06536 whole entry): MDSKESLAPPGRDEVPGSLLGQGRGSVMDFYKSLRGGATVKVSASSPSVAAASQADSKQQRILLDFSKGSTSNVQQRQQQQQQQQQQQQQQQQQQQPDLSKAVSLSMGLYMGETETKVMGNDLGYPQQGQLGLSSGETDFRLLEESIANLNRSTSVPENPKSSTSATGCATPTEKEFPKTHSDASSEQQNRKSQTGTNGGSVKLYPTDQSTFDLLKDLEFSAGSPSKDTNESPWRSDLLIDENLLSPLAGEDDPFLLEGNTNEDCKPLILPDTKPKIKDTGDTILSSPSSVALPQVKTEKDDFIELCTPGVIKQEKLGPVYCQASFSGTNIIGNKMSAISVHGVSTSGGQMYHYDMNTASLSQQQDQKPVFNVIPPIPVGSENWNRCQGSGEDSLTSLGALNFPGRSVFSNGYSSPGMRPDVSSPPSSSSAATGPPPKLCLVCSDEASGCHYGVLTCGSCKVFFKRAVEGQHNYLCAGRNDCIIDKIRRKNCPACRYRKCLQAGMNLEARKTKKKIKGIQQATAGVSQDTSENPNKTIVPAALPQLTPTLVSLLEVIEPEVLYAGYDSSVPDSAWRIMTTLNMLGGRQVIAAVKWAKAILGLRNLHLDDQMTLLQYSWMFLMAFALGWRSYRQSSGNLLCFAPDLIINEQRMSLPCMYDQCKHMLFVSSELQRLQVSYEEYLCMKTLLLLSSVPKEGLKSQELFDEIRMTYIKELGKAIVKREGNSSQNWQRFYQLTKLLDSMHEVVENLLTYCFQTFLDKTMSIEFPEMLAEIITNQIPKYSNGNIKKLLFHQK

[2] = biological target: T2, Mineralocorticoid receptor (Rattus norvegicus, UniProt P22199)
T2 sequence (P22199 whole entry): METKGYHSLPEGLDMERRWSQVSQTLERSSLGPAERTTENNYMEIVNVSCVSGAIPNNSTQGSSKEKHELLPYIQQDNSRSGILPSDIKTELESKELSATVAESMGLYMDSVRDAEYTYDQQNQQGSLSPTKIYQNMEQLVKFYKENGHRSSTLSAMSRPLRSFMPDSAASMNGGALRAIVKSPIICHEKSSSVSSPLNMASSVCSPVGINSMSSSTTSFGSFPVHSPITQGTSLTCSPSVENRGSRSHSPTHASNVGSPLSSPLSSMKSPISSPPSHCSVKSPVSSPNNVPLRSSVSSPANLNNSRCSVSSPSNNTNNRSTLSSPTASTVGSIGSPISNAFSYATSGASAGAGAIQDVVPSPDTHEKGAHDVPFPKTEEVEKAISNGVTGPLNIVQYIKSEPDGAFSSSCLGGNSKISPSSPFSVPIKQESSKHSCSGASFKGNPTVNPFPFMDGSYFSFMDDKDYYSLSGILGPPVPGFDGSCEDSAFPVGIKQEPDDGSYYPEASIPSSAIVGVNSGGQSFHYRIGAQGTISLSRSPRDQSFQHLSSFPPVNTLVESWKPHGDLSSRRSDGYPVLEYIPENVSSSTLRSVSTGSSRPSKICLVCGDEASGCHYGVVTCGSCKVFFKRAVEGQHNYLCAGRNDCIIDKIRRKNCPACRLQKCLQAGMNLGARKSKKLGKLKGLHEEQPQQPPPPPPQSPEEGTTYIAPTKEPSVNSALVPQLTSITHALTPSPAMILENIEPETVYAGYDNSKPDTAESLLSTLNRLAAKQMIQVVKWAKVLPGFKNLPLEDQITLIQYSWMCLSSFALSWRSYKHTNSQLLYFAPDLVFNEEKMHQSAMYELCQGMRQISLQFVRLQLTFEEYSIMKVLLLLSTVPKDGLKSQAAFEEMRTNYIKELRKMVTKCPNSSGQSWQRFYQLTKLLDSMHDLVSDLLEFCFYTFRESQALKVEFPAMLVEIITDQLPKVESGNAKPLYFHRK
Description: Displacement of [3H]-aldosterone from rat mineralocorticoid receptor incubated overnight by liquid scintillation counting analysis

[3] = biological target: T3, Mineralocorticoid receptor (Homo sapiens, UniProt P08235); assay: biochemical
T3 sequence (P08235 whole entry): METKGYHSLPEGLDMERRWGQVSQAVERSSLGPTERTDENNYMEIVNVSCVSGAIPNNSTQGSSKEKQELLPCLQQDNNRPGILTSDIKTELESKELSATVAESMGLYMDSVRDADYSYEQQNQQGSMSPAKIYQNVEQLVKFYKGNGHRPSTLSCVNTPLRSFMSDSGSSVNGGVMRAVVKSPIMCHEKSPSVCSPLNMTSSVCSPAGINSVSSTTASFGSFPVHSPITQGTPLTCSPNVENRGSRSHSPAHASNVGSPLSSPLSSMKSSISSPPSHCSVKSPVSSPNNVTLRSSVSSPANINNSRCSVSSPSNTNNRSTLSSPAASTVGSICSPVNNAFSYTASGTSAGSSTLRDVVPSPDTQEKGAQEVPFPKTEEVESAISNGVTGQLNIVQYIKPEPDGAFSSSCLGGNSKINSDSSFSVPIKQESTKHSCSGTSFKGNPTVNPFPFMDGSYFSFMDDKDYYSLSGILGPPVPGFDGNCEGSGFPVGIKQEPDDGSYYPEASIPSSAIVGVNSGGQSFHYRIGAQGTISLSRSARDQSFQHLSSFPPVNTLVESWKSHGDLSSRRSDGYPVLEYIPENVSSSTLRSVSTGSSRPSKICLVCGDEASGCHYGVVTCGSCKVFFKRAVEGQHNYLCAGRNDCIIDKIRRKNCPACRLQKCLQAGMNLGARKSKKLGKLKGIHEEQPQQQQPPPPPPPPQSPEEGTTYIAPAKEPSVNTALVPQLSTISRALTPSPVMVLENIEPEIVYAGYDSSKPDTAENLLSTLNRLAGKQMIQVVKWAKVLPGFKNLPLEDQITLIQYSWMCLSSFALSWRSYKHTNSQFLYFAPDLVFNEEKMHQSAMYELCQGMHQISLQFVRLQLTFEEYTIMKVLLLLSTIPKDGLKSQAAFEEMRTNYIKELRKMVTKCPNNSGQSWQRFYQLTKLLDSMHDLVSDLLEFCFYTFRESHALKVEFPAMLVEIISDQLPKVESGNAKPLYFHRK
Description: Displacement of [3H]-aldosterone from recombinant human mineralocorticoid receptor expressed in baculovirus infected insect cells incubated overnight by liquid scintillation counting analysis

[4] = biological target: T4, Mineralocorticoid receptor (Homo sapiens) (UniProt P08235); assay: Antagonist activity at human wild-type mineralocorticoid receptor expressed in CHO-K1 cells assessed as inhibition of aldosterone-induced transcriptional activity incubated for 24 hrs in presence of 1 nM aldosterone by Steady-Glo reagent based reporter gene assay relative to control; assay type: cell-based; design: scale not given: the % may be the effect or the level left; details: filed as antagonist
T4 sequence (whole entry): T3 sequence (P08235 whole entry)

[5] = system: CHO-K1; assay: Antagonist activity at human mineralocorticoid receptor S810L mutant expressed in CHO-K1 cells assessed as inhibition of aldosterone-induced transcriptional activity at 300 nM incubated for 24 hrs in presence of aldosterone at 0.5 nM by reporter gene assay relative to control; assay type: cell-based; design: scale not given: the % may be the effect or the level left; details: filed as antagonist
[6] = biological target: T5, Glucocorticoid receptor (Homo sapiens, UniProt P04150); assay: biochemical
T5 sequence (P04150 whole entry): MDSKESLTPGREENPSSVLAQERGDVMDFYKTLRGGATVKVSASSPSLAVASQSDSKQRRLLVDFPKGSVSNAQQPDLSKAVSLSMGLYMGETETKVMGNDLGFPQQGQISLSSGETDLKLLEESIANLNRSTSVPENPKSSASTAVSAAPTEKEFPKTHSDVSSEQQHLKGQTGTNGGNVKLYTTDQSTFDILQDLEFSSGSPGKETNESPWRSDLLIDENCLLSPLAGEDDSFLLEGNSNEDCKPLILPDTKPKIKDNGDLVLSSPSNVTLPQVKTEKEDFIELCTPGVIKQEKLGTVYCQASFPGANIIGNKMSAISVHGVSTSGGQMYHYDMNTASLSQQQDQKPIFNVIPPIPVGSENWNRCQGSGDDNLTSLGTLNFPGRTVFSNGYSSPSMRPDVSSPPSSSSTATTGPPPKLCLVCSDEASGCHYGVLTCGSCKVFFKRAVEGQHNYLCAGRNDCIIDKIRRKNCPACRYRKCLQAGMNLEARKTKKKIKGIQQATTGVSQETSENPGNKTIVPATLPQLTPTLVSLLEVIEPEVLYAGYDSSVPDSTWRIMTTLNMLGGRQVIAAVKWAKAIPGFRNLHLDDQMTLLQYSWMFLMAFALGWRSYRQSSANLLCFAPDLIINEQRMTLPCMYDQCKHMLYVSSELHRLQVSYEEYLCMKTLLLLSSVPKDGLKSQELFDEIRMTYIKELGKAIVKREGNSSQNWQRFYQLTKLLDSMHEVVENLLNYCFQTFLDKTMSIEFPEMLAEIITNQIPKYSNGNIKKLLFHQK
Description: Displacement of [3H]-dexamethasone from recombinant full length human glucocorticoid receptor expressed in baculovirus infected insect cells incubated overnight by liquid scintillation counting analysis

| Compound | Ki [1] | Ki [2] | Ki [3] | Activity [4] | IC50 [6] | Activity [5] |
| --- | --- | --- | --- | --- | --- | --- |
| CS(=O)(=O)Nc1ccc2c(c1)OCC(=O)N2c1ccc(F)cc1 | > 100 µM | 1.75 µM |  |  |  |  |
| CS(=O)(=O)Nc1ccc2c(c1)OC1(CCC1)C(=O)N2c1ccc(F)cc1 | > 100 µM | 0.626 µM | 0.152 µM |  |  |  |
| CN(c1ccccc1)c1ccc(NS(C)(=O)=O)cc1 | 47.2 µM | 0.853 µM | 0.735 µM |  |  |  |
| CS(=O)(=O)Nc1ccc2c(c1)OC1(CC1)C(=O)N2c1ccc(F)cc1 | > 100 µM | 0.549 µM | 0.808 µM |  |  |  |
| CC1Oc2cc(NS(C)(=O)=O)ccc2N(c2ccc(F)cc2)C1=O (centres undefined) | 136 µM | 0.201 µM | 0.16 µM |  |  |  |
| CC(=O)S[C@@H]1CC2=CC(=O)CC[C@]2(C)[C@H]2CC[C@@]3(C)[C@@H](CC[C@@]34CCC(=O)O4)[C@H]12 [SPIRONOLACTONE] |  |  |  | 98.3% | 6.05 µM | 58.5% |
| CS(=O)(=O)Nc1ccc2c(c1)OC(c1ccccc1)C(=O)N2c1ccc(F)cc1 (centres undefined) | 55.2 µM | 0.25 µM | 0.342 µM |  |  |  |
| CC(C)(c1ccccc1)c1ccc(NS(=O)(=O)C(F)(F)F)cc1 | > 100 µM | > 100 µM |  |  |  |  |
| CC(C)(c1ccccc1)c1ccc(S(N)(=O)=O)cc1 | > 100 µM | > 100 µM |  |  |  |  |
| CNS(=O)(=O)c1ccc(C(C)(C)c2ccccc2)cc1 | > 100 µM | 4.31 µM | 1.37 µM |  |  |  |
| CS(=O)(=O)Nc1ccc(Nc2ccccc2)cc1 | > 100 µM | > 100 µM |  |  |  |  |
| CC(=O)Nc1ccc(C(C)(C)c2ccccc2)cc1 | > 100 µM | > 100 µM |  |  |  |  |

More lines, main results first:

| Ki [1] | Ki [2] | Ki [3] | Activity [4] | IC50 [6] | Compound | Activity [5] |
| --- | --- | --- | --- | --- | --- | --- |
| 25.4 µM | 5.67 µM |  |  |  | CC(=O)c1ccc(N(Cc2ccccc2)c2ccc(NS(C)(=O)=O)cc2)cc1 |  |
| 41.5 µM |  |  |  |  | CS(=O)(=O)Nc1ccc(N(C(=O)c2ccccc2)c2ccc(F)cc2)cc1 |  |
| 45 µM | 1.56 µM | 0.607 µM |  |  | CCN(c1ccccc1)c1ccc(NS(C)(=O)=O)cc1 |  |
| 37.9 µM | 3.77 µM | 1.92 µM |  |  | CCS(=O)(=O)Nc1ccc(C(C)(C)c2ccccc2)cc1 |  |
| 40 µM | 1.96 µM | 0.74 µM |  |  | CC(C)(c1ccccc1)c1ccc(NS(C)(=O)=O)cc1 |  |
| 43.2 µM |  |  |  |  | CC1(C)CN(c2ccc(F)cc2)c2ccc(NS(C)(=O)=O)cc2O1 |  |
| 29 µM | 6.88 µM |  |  |  | CN(C)S(=O)(=O)Nc1ccc(C(C)(C)c2ccccc2)cc1 |  |
| 19.6 µM | 12 µM |  |  |  | CC(C)(c1ccccc1)c1cccc(NS(C)(=O)=O)c1 |  |
| 29.1 µM | 0.357 µM | 0.147 µM |  |  | CS(=O)(=O)Nc1ccc(N(Cc2ccccc2)c2ccccc2)cc1 |  |
| 22.2 µM | 1.24 µM | 1.27 µM |  |  | CS(=O)(=O)Nc1ccc(N(C(=O)c2ccccc2)c2ccccc2)cc1 |  |
